Assays:
[1] = Volume of distribution at steady state in rat at 2 mg/kg, iv and 10 mg/kg, po; details: in vivo, read-out: Vdss
[2] = AUClast in rat at 2 mg/kg, iv and 10 mg/kg, po; details: plasma
[3] = Oral bioavailability in rat at 10 mg/kg; assay type: ADME, organism-based; details: in vivo
[4] = Clearance in rat at 2 mg/kg, iv and 10 mg/kg, po; details: in vivo

Compound | Vd [1] | AUC(0-t) [2] | bioavailability [3] | clearance [4]
N#Cc1cc(NCC(=O)NC2CN([C@H]3CC[C@@](O)(c4cncs4)CC3)C2)c2cc(C(F)(F)F)ccc2n1 | 13 L/kg | 6 ng·h/mL | 0.5% | 148 mL/min/kg
O=C(CNc1ncnc2ccc(C(F)(F)F)cc12)NC1CN([C@H]2CC[C@@](O)(c3cncs3)CC2)C1 | 8.5 L/kg | 10.6 ng·h/mL | 0.3% | 89 mL/min/kg

From ChEMBL document CHEMBL2311284, “A novel series of N-(azetidin-3-yl)-2-(heteroarylamino)acetamide CCR2 antagonists” (Bioorg Med Chem Lett, 2013)
